Source: the supplement of paper PMC11451515

Key:
[1] = tested on: SEM cells; experiment: cell viability relative to DMSO control; higher = less cytotoxic; details: 48 h
Method in brief: (§1)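 NOMO1 or SEM cells were plated at 500 cells/well and P12-Ichikawa cells at 1000 cells/well in 1536-well plates (5 μl), after each leukemia line had been adapted for at least four passages in each medium. Pin dosing delivered library compounds in DMSO at 11 threefold concentrations, 47 μM to 0.79 nM. CellTiter-Glo One luminescence was read after 48 h at 37°C. Viability is reported as a per-plate percentage of DMSO wells, with cell-free wells as background.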

[2] = tested on: NOMO1; experiment: AUC of viability dose-response curve (% viability x log10 dose units); higher = less sensitive; details: 48 h
Method in brief: (§2)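 Seeding of medium-adapted leukemia cells was at 500 or 1000 cells/well in 1536-well plates, followed by 48 h at 37°C with library compounds in DMSO at 11 threefold doses from 47 μM to 0.79 nM. CellTiter-Glo One luminescence was normalised per plate to DMSO and cell-free wells and fitted as a four-parameter log-logistic function of log10 dose. Area under the curve was integrated by trapezoidal rule, with curves exceeding full viability scaled and curves failing quality control removed.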

[3] = tested on: P12-Ichikawa; experiment: as above; details: 48 h
Method in brief: as §2

[4] = tested on: SEM cells; experiment: as above; details: 48 h
Method in brief: as §2

[5] = tested on: NOMO1; experiment: cell viability relative to DMSO control; higher = less cytotoxic; details: HPLM + 10% dialyzed FBS, 48 h
Method in brief: as §1

COCCOc1ccc2c(c1)ncn2-c1ccc2cccc(N3CCC(N)CC3)c2n1
cell viability [%], [1]
Details | HPLM + 10% dialyzed FBS | RPMI 5 mM glucose + 10% FBS | RPMI 5 mM glucose + 10% dialyzed FBS
0.000781 µM | 83.8 | 99.7 | 112
0.00234 µM | 77.9 | 115 | 101
0.00702 µM | 70.3 | 109 | 72.2
0.0211 µM | 59.8 | 67.6 | 65.2
0.0632 µM | 52.5 | 58.7 | 51.3
0.19 µM | 51.6 | 47.8 | 46.1
0.569 µM | 46.6 | 50.9 | 44.6
1.71 µM | 42.5 | 44.1 | 41.8
5.12 µM | 21.7 | 25.8 | 23.7
15.4 µM | 12.8 | 12.3 | 13.1
46.1 µM | 4.13 | 3.44 | 3.97

AUC of viability dose-response curve
Details | HPLM + 10% dialyzed FBS | RPMI 5 mM glucose + 10% FBS | RPMI 5 mM glucose + 10% dialyzed FBS
[2] | 394 | 418 | 405
[3] | 377 | 405 | 394

OC[C@H]1O[C@@H](OCCc2ccc(O)cc2)[C@H](O)[C@@H](O)[C@@H]1O
AUC of viability dose-response curve
Details | [2] | [3] | [4]
HPLM + 10% dialyzed FBS | 459 | 435 | 447
RPMI 5 mM glucose + 10% FBS | 458 | 456 | 432
RPMI 5 mM glucose + 10% dialyzed FBS | 464 | 461 | 419

ClC1=C[NH]N=C1C\2NC(=N\C3=C2C(=O)CCC3)/NC4=NC5=CC=CC=C5O4 (stereo not given)
AUC of viability dose-response curve
Details | [2] | [3] | [4]
HPLM + 10% dialyzed FBS | 457 | 464 | 460
RPMI 5 mM glucose + 10% FBS | 463 | 453 | 452
RPMI 5 mM glucose + 10% dialyzed FBS | 465 | 455 | 441

OC(=O)C/1=C/C(=O)NC(=O)N1
AUC of viability dose-response curve
Details | [2] | [3] | [4]
HPLM + 10% dialyzed FBS | 424 | 455 | 466
RPMI 5 mM glucose + 10% FBS | 450 | 457 | 457
RPMI 5 mM glucose + 10% dialyzed FBS | 437 | 456 | 458

O=C1NC(=O)/C(=C\c2ccc(-c3ccc(F)cc3)o2)S1
AUC of viability dose-response curve
Details | [2] | [3] | [4]
HPLM + 10% dialyzed FBS | 415 | 436 | 455
RPMI 5 mM glucose + 10% FBS | 462 | 445 | 462
RPMI 5 mM glucose + 10% dialyzed FBS | 444 | 455 | 457

OC[C@H]1O[C@@H](O[C@@H]2O\C=C(/[C@H]3C\C=C(CO)/[C@@H]23)C(O)=O)[C@H](O)[C@@H](O)[C@@H]1O
AUC of viability dose-response curve
Details | [2] | [3] | [4]
HPLM + 10% dialyzed FBS | 453 | 449 | 452
RPMI 5 mM glucose + 10% FBS | 449 | 468 | 475
RPMI 5 mM glucose + 10% dialyzed FBS | 455 | 418 | 462

C1=C/COCc2cc(ccc2OCCN2CCCC2)Nc2nccc(n2)-c2cccc(c2)OCC/1
Details | AUC of viability dose-response curve | cell viability [%]
[3], HPLM + 10% dialyzed FBS | 409 | –
[3], RPMI 5 mM glucose + 10% FBS | 415 | –
[3], RPMI 5 mM glucose + 10% dialyzed FBS | 406 | –
[4], HPLM + 10% dialyzed FBS | 354 | –
[4], RPMI 5 mM glucose + 10% FBS | 369 | –
[4], RPMI 5 mM glucose + 10% dialyzed FBS | 350 | –
[5], 0.000781 µM | – | 20.8
[5], 0.00234 µM | – | 84.8
[5], 0.00702 µM | – | 123
[5], 0.0211 µM | – | 133
[5], 0.0632 µM | – | 161
[5], 0.19 µM | – | 130
[5], 0.569 µM | – | 124
[5], 1.71 µM | – | 94.7
[5], 5.12 µM | – | 63.2
[5], 15.4 µM | – | 7.96
[5], 46.1 µM | – | 5.7

N#Cc1ccc(COC[C@H]2O[C@@H](n3c(NCc4ccc(Cl)c(Cl)c4)nc4c(N)ncnc43)[C@H](O)[C@@H]2O)cc1
AUC of viability dose-response curve
Details | [2] | [3] | [4]
HPLM + 10% dialyzed FBS | 420 | 458 | 465
RPMI 5 mM glucose + 10% FBS | 428 | 414 | 411
RPMI 5 mM glucose + 10% dialyzed FBS | 420 | 415 | 431
